This passage reports IC50 results from patent EP4741392A1, “1H-PYRAZOLO[4,3-C]PYRIDINE COMPOUND, AND COMPOSITION THEREOF AND USE THEREOF” (Shenzhen TargetRx Co., Ltd., priority 2023, dated 2025).

Type in all cases: cell-based
One assay relates to OCI-LY10 cells. As to the kind of experiment: Viability assay of OCI-LY10 cells (CTG). The settings on record: Homo sapiens, OCI-Ly10, 120 h, cell viability, read-out: OCl-Ly10. On the procedure: (§1) The in vitro antiproliferative activity of the compounds of the present disclosure against TMD8 cells and OCI-LY10 cells was assayed using CTG (Cell Titer-Glo) luminescent cell viability assay. The specific assay methods were as follows. • a) TMD8 cells were cultured at 37 °C and 5% CO2 in complete medium [RPMI 1640 (supplier Gibco, product number 22400-089) + 10% FBS (supplier Gibco, product number 10091-148) + 1% P/S (supplier Hyclone, product number SV30010)]; OCI-LY10 cells were cultured at 37 °C and 5% CO2 in medium [IMDM (supplier Gibco, product number 31980-030) + 20% FBS (supplier Gibco, product number 10091-148) + 1% P/S (supplier Hyclone, product number SV30010) + 0.05 mM 2-Mercaptoethanol (supplier Sigma, product number M6250)]. • b) Cells in the logarithmic growth phase were harvested, and the total cell count and viable cell count were determined using a Vi-cell cell counter (supplier: BECKMAN COULTER, product number 2785198). • c) Cell density was adjusted using complete culture medium. Then, the cells were inoculated at 1500 cells per well in a 384-well cell culture plate (supplier Greiner, product number 781090). • d) The cells in the 384-well plate were cultured at 37 °C and 5% CO2 overnight. • e) A 10-fold drug solution was prepared, and then the serially diluted compound was transferred to the corresponding assay wells of the 384-well cell plate so that the final assay concentration was 1000 nM, with 9 concentrations, 3-fold dilutions, and triplicates for each drug concentration. • f) The cells in the 384-well plate with the drug added were cultured at 37 °C and 5% CO2 for another 120 hours. • g) The cells were removed from the incubator, and allowed to equilibrate at room temperature for 30 minutes. The cell state and compound solubility were observed under a microscope. • h) An equal volume of CellTiterGlo solution (supplier Promega, product number G7573) was added to each well, and the plate was incubated at room temperature for 30 minutes. • i) Then, the luminescent signal value was detected on an EnVision instrument (supplier PerkinElmer, product number 2441715).
(§2) The data were analyzed using XL-fit software (supplier: ID Business Solutions Ltd., software version: XL fit 5.5.0.5). Nonlinear regression was performed using X=Log(X), and the X values were transformed using a four-parameter Logistic model 205, from which the IC50 values were calculated. Inhibition rate % = (Max−samplevalue)/Max*100.(Max:DMSOnegativecontrol) [formula]

In a further assay the test system is TMD8 cells. As to the kind of experiment: Viability assay of TMD8 cells (CTG). The settings on record: Homo sapiens, cell viability, 120 hours. The protocol: as §1, §2
The next assay deals with Ramos cells with BTK WT. As to the kind of experiment: Phosphor-BTK(Y223) assay, suspended cells. The settings on record: Homo sapiens, Ramos, phosphorylated BTK Y223, Ramos cells with BTK WT. Summed up:
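Ramos BTK WT cells (2.5 k/well) were treated with compound dilutions for 2 h at 37 °C, then 5 mM Na3VO4 for 3 h. Lysates were read by HTRF p-BTK(Y223) cryptate/d2 antibodies overnight at RT (665/620 ratio). IC50 came from a four-parameter fit of % inhibition versus blank and positive-control wells.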

`CCN1CCn2nc(-c3cnc(-c4ccc(CNC(=O)c5cc(F)ccc5OC)cc4)c4c(N)n[nH]c34)cc2C1` [Example 72, N-(4-(3-amino-7-(5-ethyl-4,5,6,7-tetrahydropyrazolo[1,5-a]pyrazin-2-yl)-1H-pyrazolo[4,3-c]pyridin-4-yl)benzyl)-5-fluoro-2-methoxybenzamide]: the IC50 in the assay on OCI-LY10 cells, in the assay with TMD8 cells and with Ramos cells with BTK WT was at most 5 nM each time.

`COc1ccc(F)cc1C(=O)NCc1ccc(-c2ncc(-c3ccc(N4CCN(C)C[C@@H]4C)cn3)c3[nH]nc(N)c23)cc1` [Example 74, (S)-N-(-4-(3-amino-7-(5-(2,4-dimethylpiperazin-1-yl)pyridin-2-yl) 1H-pyrazolo[4,3-c]pyridin-4-yl)benzyl)-5-fluoro-2-methoxybenzamide]: the IC50 in the assay with OCI-LY10 cells, with TMD8 cells and in the assay on Ramos cells with BTK WT was at most 5 nM each time.

Turning to `COc1ccc(F)cc1C(=O)NCc1ccc(-c2ncc(-c3ccc(N4CCN(C)C[C@H]4C)cn3)c3[nH]nc(N)c23)cc1` [Example 75, (R)-N-(-4-(3-amino-7-(5-(2,4-dimethylpiperazin-1-yl)pyridin-2-yl) 1H-pyrazolo[4,3-c]pyridin-4-yl)benzyl)-5-fluoro-2-methoxybenzamide], the IC50 in the assay on OCI-LY10 cells, in the assay on TMD8 cells and with Ramos cells with BTK WT was at most 5 nM in each case.

As to `COc1ccc(F)cc1C(=O)NCc1ccc(-c2ncc(-c3ccc(N4CCOCC4)cn3)c3[nH]nc(N)c23)cc1` [Example 76, N-(4-(3-amino-7-(5-morpholinopyridin-2-yl)-1H-pyrazolo[4,3-c]pyridin-4-yl)benzyl)-5-fluoro-2-methoxybenzamide], the IC50 in the assay with OCI-LY10 cells, in the assay on TMD8 cells and in the assay on Ramos cells with BTK WT was at most 5 nM throughout.

Take `COc1ccc(F)cc1C(=O)NCc1ccc(-c2nc(C)c(-c3ncccn3)c3[nH]nc(N)c23)cc1` [Example 84, N-(4-(3-amino-6-methyl-7-(pyrimidin-2-yl)-1H-pyrazolo[4,3-c]pyridin-4-yl)benzyl)-5-fluoro-2-methoxybenzamide]: the results for the IC50 in the assay with OCI-LY10 cells, in the assay with TMD8 cells and in the assay with Ramos cells with BTK WT were 10 to 50 nM, 5 to 10 nM and 5 to 10 nM, respectively.

Consider `COc1ccc(F)cc1C(=O)NCc1ccc(-c2nc(C(F)F)c(-c3ncccn3)c3[nH]nc(N)c23)cc1` [Example 85, N-(4-(3-amino-6-(difluoromethyl)-7-(pyrimidin-2-yl)-1H-pyrazolo[4,3-c]pyridin-4-yl)benzyl)-5-fluoro-2-methoxybenzamide], for which the IC50 in the assay on OCI-LY10 cells is 10 to 50 nM; with TMD8 cells, at most 5 nM; with Ramos cells with BTK WT, at most 5 nM.

`COc1ccc(F)cc1C(=O)NCc1ccc(-c2nc(C3CCSCC3)cc3[nH]nc(N)c23)cc1` [Example 91, N-(4-(3-amino-6-(tetrahydro-2H-thiopyran-4-yl)-1H-pyrazolo[4,3-c]pyridin-4-yl)benzyl)-5-fluoro-2-methoxybenzamide]: the IC50 was at most 5 nM with OCI-LY10 cells, at most 5 nM with TMD8 cells and 5 to 10 nM in the assay with Ramos cells with BTK WT.

On to `C=CC(=O)N1CCCC(c2cc3[nH]nc(N)c3c(-c3ccc(CNC(=O)c4cc(F)ccc4OC)cc3)n2)C1` (stereo not drawn) [Example 96, N-(4-(6-(1-acryloylpiperidin-3-yl)-3-amino-1H-pyrazolo[4,3-c]pyridin-4-yl)benzyl)-5-fluoro-2-methoxybenzamide], for which the IC50 with OCI-LY10 cells, with TMD8 cells and with Ramos cells with BTK WT was at most 5 nM throughout.

For the compound `COc1ccc(F)cc1C(=O)NCc1ccc(-c2nc(C3CCOCC3)cc3[nH]nc(N)c23)cc1` [Example 115, N-(4-(3-amino-6-(tetrahydro-2H-pyran-4-yl)-1H-pyrazolo[4,3-c]pyridin-4-yl)benzyl)-5-fluoro-2-methoxybenzamide], the IC50 with OCI-LY10 cells was 10 to 50 nM; with TMD8 cells it was 10 to 50 nM; in the assay with Ramos cells with BTK WT, at most 5 nM.

As to `COc1ccc(F)cc1C(=O)NCc1ccc(-c2nc([C@H]3CC[C@H](CO)CC3)cc3[nH]nc(N)c23)cc1` [Example 117, N-(4-(3-amino-6-((1r,4r)-4-(hydroxymethyl)cyclohexyl)-1H-pyrazolo[4,3-c]pyridin-4-yl)benzyl)-5-fluoro-2-methoxybenzamide], the IC50 in the assay on OCI-LY10 cells, in the assay on TMD8 cells and with Ramos cells with BTK WT was at most 5 nM each time.
